This note sets out measurements from patent US20240239788A1, “SMALL MOLECULE INHIBITORS OF KRAS G12D MUTANT” (Merck Sharp & Dohme LLC, priority 2021, published 2024).

SMILES strings stand for the structures. Counter-ions that a name gives are not always drawn. Like-named read-outs stand apart in the source and are kept apart here.

Experiment [1] addresses KRAS protein containing G12D mutation (Homo sapiens (Human), UniProt P01116, G12D). The experiment in a line: SOS-catalyzed nucleotide exchange assay (GNE), TR-FRET. It is filed as biochemical. Particulars: biotinylated KRAS G12D, SOS and GTP, 60-minute incubation. On the procedure:
Compounds are added to this complex and then after a 60-minute incubation time the mixture is treated with SOS and unlabeled GTP. Small molecule inhibitors stabilize the Bodipy-GDP complex whereas the untreated protein rapidly exchanges Bodipy-GDP for unlabeled GTP resulting in reduced TR-FRET signal.
This solution is referred to as biotinylated KRAS G12D stock solution.
For orientation: In TR-FRET formats the signal depends on donor and acceptor labels being close together.

The subject of experiment [2] is AsPC-1 cells containing homozygous KRAS-G12D activating mutation. The experiment in a line: Cellular phospho-ERK assay with 10% FBS (Examples 107a-256). It is filed as cell-based. On the procedure:
5% CO2 for 2 hours. […] Assay plates were read on a EnVision Multimode Plate Reader (PerkinElmer) and the ratio of p-Erk vs total Erk in each well was used as the final readout.

[3] abbreviates: Homo sapiens, ASPC1, 2 h, read-out: IC50 (nM) pERK (cell with FBS 10%), AsPC-1 cells, 10% fetal bovine serum, 2 hours, ratio of p-Erk vs total Erk.
The mark [4] stands for this setting: read-out: IC50 (nM) pERK (cell with FBS 10%), AsPC-1 cells, 10% fetal bovine serum, 2 hours, ratio of p-Erk vs total Erk.

KRAS protein containing G12D mutation, sequence (P01116 other isoform, or with tags, fused parts or gaps G12D (already in the parent)): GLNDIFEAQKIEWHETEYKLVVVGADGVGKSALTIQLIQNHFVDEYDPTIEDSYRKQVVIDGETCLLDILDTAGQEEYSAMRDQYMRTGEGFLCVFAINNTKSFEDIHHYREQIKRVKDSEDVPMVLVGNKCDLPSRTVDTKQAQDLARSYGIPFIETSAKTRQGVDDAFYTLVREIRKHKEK

In the case of `Oc1c(F)cc(Cl)c(Cl)c1-c1c(Cl)cc2c(N3C[C@H]4CC[C@@H](C3)N4)nc(OC[C@@]34CCCN3C[C@H](F)C4)nc2c1F` [Ex. 199, 2-(4-((1R,5S)-3,8-diazabicyclo[3.2.1]-octan-3-yl)-6-chloro-8-fluoro-2-(((2R,7aS)-2-fluorotetrahydro-1H-pyrrolizin-7a(5H)-yl)-methoxy)quinazolin-7-yl)-3,4-dichloro-6-fluorophenol], the IC50 was 2620 nM in experiment [1] and 30000 nM in experiment [2] (setting [3]).
For `CN(C[C@@]1(COc2nc(N3C[C@H]4CC[C@@](C)(C3)N4)c3cc(F)c(-c4cc(O)cc5cccc(Cl)c45)c(F)c3n2)CC1(F)F)[C@@H]1CCC[C@H]1O` [Ex. 217a, 5-chloro-4-(2-(((R)-2,2-difluoro-1-((((1R,2R)-2-hydroxycyclopentyl)-(methyl)amino)methyl)cyclopropyl)methoxy)-6,8-difluoro-4-((1S,5R)-1-methyl-3,8-diazabicyclo[3.2.1]octan-3-yl)quinazolin-7-yl)naphthalen-2-ol], the IC50 in experiment [1] turned out to be 12.7 nM; in experiment [2] (setting [3]), 2640 nM.
On to `CN(C[C@@]1(COc2nc(N3C[C@H]4CC[C@@](C)(C3)N4)c3cc(F)c(-c4cc(O)cc5cccc(Cl)c45)c(F)c3n2)CC1(F)F)[C@@H]1CCC[C@H]1O` [Ex. 217b], for which the IC50 in experiment [1] came out at 675 nM; in experiment [2] (setting [4]) it was 8570 nM.
For `COCCN(C)C[C@@]1(COc2nc(N3CC4CC[C@@](C)(C3)N4)c3cc(F)c(-c4c(C(F)(F)F)c(C)cc5[nH]ncc45)c(F)c3n2)CC1(F)F` [Ex. 223, (1S,5R)-3-(2-(((R)-2,2-difluoro-1-(((2-methoxyethyl)(methyl)amino)-methyl)cyclopropyl)methoxy)-6,8-difluoro-7-(6-methyl-5-(trifluorometh-yl)-1H-indazol-4-yl)quinazolin-4-yl)-1-methyl-3,8-diazabicyclo[3.2.1]-ocan-8-ium 2,2,2-trifluoroacetate], the IC50 in experiment [1] is 425 nM; in experiment [2] (setting [3]), 27300 nM.
Regarding `Cc1cc(N)nc(-c2c(Cl)cc3c(N4C[C@H]5CC[C@@H](C4)N5)nc(OC[C@@]45CCCN4C[C@H](F)C5)nc3c2F)c1C(F)(F)F` [Ex. 228b, 6-(4-((1R,5S)-3,8-diazabicyclo[3.2.1]octan-3-yl)-6-chloro-8-fluoro-2-(((2R,7aS)-2-fluorotetrahydro-1H-pyrrolizin-7a(5H)-yl)methoxy)quinazolin-7-yl)-4-methyl-5-(trifluoromethyl)pyridin-2-amine], the IC50 worked out at 2.43 nM in experiment [1] and 64.4 nM in experiment [2] (Homo sapiens, ASPC1, 2 h, read-out: IC50 (nM) pERK (cell with FBS 10%)).
As to `Cc1n[nH]c2ncc(C(F)(F)F)c(-c3c(F)cc4c(N5C[C@H]6CC[C@@H](C5)N6)nc(OC[C@@]56CCCN5C[C@H](F)C6)nc4c3F)c12` [Ex. 234, 4-((1R,5S)-3,8-diazabicyclo[3.2.1]octan-3-yl)-6,8-difluoro-2-(((2R,7aS)-2-fluorotetrahydro-1H-pyrrolizin-7a(5H)-yl)methoxy)-7-(3-methyl-5-(trifluoromethyl)-1H-pyrazolo[3.4-b]pyridin-4-yl)quinazoline], the IC50 was found to be 64 nM in experiment [1] and 785 nM in experiment [2] (setting [4]).
Taken in the same sequence, the figures for `Cc1c(F)c(N)nc(-c2c(Cl)cc3c(N4C[C@H]5CC[C@@H](C4)N5)nc(OC[C@@]45CCCN4C[C@H](F)C5)nc3c2F)c1C(F)(F)F` [Ex. 236] were 3.11 nM and 68.7 nM.
For `Cc1cc(N)nc(-c2c(F)cc3c(N4C[C@H]5CC[C@@H](C4)N5)nc(OC[C@@]45CCCN4C[C@H](F)C5)nc3c2F)c1C1CC1` [Ex. 237, 6-(4-((1R,5S)-3,8-diazabicyclo[3.2.1]octan-3-yl)-6,8-difluoro-2-(((2R,7aS)-2-fluorotetrahydro-1H-pyrrolizin-7a(5H)-yl)methoxy)quinazolin-7-yl)-5-cyclopropyl-4-methylpyridin-2-amine], the figures for the IC50 in experiment [1] and in experiment [2] (setting [3]) were 57.6 nM and 508 nM, respectively.
With `Cc1cc(N)nc(-c2c(Cl)cc3c(N4C[C@H]5CC[C@@](C)(C4)N5)nc(OC[C@@]45CCCN4C[C@H](F)C5)nc3c2F)c1C(F)(F)F` [Ex. 238a, 6-(6-chloro-8-fluoro-2-(((2R,7aS)-2-fluorotetrahydro-1H-pyrrolizin-7a(5H)-yl)methoxy)-4-((1S,5R)-1-methyl-3,8-diazabicyclo[3.2.1]octan-3-yl)quinazolin-7-yl)-4-methyl-5-(trifluoromethyl)pyridin-2-amine], the values for the IC50 in experiment [1] and in experiment [2] (setting [3]) were 25.7 nM and 1590 nM, respectively.
Taken in the same sequence, the figures for `C[C@]12CC[C@H](CN(c3nc(OC[C@@H]4CC[C@]5(CO)CCCN45)nc4c(F)c(-c5cc(O)cc6cccc(Cl)c56)c(F)cc34)C1)N2` [Ex. 243b, 5-chloro-4-(6,8-difluoro-2-(((3S,7aS)-7a-(hydroxymethyl)hexahydro-1H-pyrrolizin-3-yl)methoxy)-4-((1S,5R)-1-methyl-3,8-diazabicyclo[3.2.1]octan-3-yl)quinazolin-7-yl)naphthalen-2-ol] were 23.1 nM and 20500 nM.
Taken in the same sequence, the figures for `CN(C)CC1(COc2nc(N3C[C@H]4CC[C@@](C)(C3)N4)c3cc(F)c(-c4cc(O)cc5ccccc45)c(F)c3n2)CC1` [Example 115, 4-(2-((1-((dimethylamino)methyl)cyclopropyl)methoxy)-6,8-difluoro-4-((1S,5R)-1-methyl-3,8-diazabicyclo [3.2.1]octan-3-yl)quinazolin-7-yl) naphthalen-2-ol] were 10.5 nM and 1470 nM.
For `CN1CCC[C@H]1COc1nc(N2CC3CC[C@@](C)(C2)N3)c2cc(F)c(-c3cc(O)cc4ccccc34)c(F)c2n1` [Example 118, 4-(6,8-difluoro-4-((1S,5R)-1-methyl-3,8-diazabicyclo [3.2.1]octan-3-yl)-2-(((S)-1-ethylpyrrolidin-2-yl)methoxy)quinazolin-7-l)naphthalen-2-ol], the figures for the IC50 in experiment [1] and in experiment [2] (setting [3]) were 82.6 nM and 1810 nM, respectively.
`C[C@]12CC[C@H](CN(c3nc(OC[C@H]4CCNC4)nc4c(F)c(-c5cc(O)cc6ccccc56)c(Cl)cc34)C1)N2` [Example 119, 4-(6-chloro-8-fluoro-4-((1S,5R)-1-methyl-3,8-diazabicyclo[3.2.1]octan-3-yl)-2-(((S)-pyrrolidin-3-yl)methoxy)quinazolin-7-yl)naphthalen-2-ol, TFA]: the IC50 in experiment [1] is 1440 nM; in experiment [2] (setting [3]), 30000 nM.
As to `C[C@]12CC[C@H](CN(c3nc(OC[C@@H]4CCN(C5CCCCC5O)C4)nc4c(F)c(-c5cc(O)cc6ccccc56)c(Cl)cc34)C1)N2` (stereo partly drawn) [Example 121, 4-(6-chloro-8-fluoro-2-(((3R)-1-(2-hydroxycyclohexyl)pyrrolidin-3-yl)methoxy)-4-((1S,5R)-1-methyl-3,8-diazabicyclo[3.2.1]octan-3-yl)quinazolin-7-yl)naphthalen-2-ol, TFA], the values for the IC50 in experiment [1] and in experiment [2] (setting [3]) were 615 nM and 11400 nM, respectively.
Consider `C[C@]12CC[C@H](CN(c3nc(OC[C@@H]4CCNC4)nc4c(F)c(-c5cc(O)cc6ccccc56)c(Cl)cc34)C1)N2` [Example 122, 4-(6-chloro-8-fluoro-4-((1S,5R)-1-methyl-3,8-diazabicyclo[3.2.1]octan-3-yl)-2-(((R)-pyrrolidin-3-yl)methoxy)quinazolin-7-yl)naphthalen-2-ol, TFA], for which the IC50 was determined as 964 nM in experiment [1] and 30000 nM in experiment [2] (setting [3]).
Take `C[C@@]12CC[C@H](CN(c3nc(OC[C@@]45CCCN4C[C@H](F)C5)nc4c(F)c(-c5cccc6ccc(F)c(F)c56)c(F)cc34)C1)N2` [compound 197, 7-(7,8-difluoronaph-thalen-1-yl)-6,8-difluoro-2-(((2R,7aS)-2-fluorotetrahydro-1H-pyrrolizin-7a(5H)-yl)-methoxy)-4-((1S,5R)-1-methyl-3,8-diaza-bicyclo[3.2.1]octan-3-yl)quinazoline]: the IC50 in experiment [1] amounted to 52.4 nM; in experiment [2] (setting [3]) it was 4470 nM.
`COCCNC[C@@]1(COc2nc(N3C[C@H]4CC[C@@](C)(C3)N4)c3cc(F)c(-c4c(C(F)(F)F)c(C)cc5[nH]ncc45)c(F)c3n2)CC1(F)F` [compound 205, (1S,5R)-3-(2-(((R)-2,2-difluoro-1-(((2-methoxyethyl)amino)methyl)cyclopropyl)methoxy)-6,8-difluoro-7-(6-methyl-5-(trifluoromethyl)-1H-indazol-4-yl)quinazolin-4-yl)-1-methyl-3,8-diazabicyclo[3.2.1]octan-8-ium 2,2,2-trifluoroacetate]: the IC50 in experiment [1] amounted to 93.9 nM; in experiment [2] (setting [3]), 9380 nM.
For the compound `CCc1cnn2cc(O)cc(-c3c(F)cc4c(N5C[C@H]6CC[C@@](C)(C5)N6)nc(OC[C@@]56CCCN5C[C@H](F)C6)nc4c3F)c12` [compound 229, 4-(6,8-difluoro-2-(((2R,7aS)-2-fluorotetrahydro-1H-pyrrolizin-7a(5H)-yl)methoxy)-4-((1S,5R)-1-methyl-3,8-diazabicyclo[3.2.1]octan-3-yl)quinazolin-7-yl)-3-ethylpyrazolo[1.5-a]pyridin-6-ol], the IC50 in experiment [1] is 98.5 nM; in experiment [2] (setting [4]) it was 1740 nM.
In the case of `C#Cc1cccc2nc(N)nc(-c3c(F)cc4c(N5C[C@H]6CC[C@@H](C5)N6)nc(OC[C@@]56CCCN5C[C@H](F)C6)nc4c3F)c12` [compound 235, 4′-((1R,5S)-3,8-diazabicyclo[3.2.1]octan-3-yl)-5-ethynyl-6′,8′-difluoro-2′-(((2R,7aS)-2-fluorotetrahydro-1H-pyrrolizin-7a(5H)-yl)methoxy)-[4,7′-biquinazolin]-2-amine], the values for the IC50 in experiment [1] and in experiment [2] (setting [3]) were 91.7 nM and 910 nM, respectively.
